Experimental findings from patent US20210000912A1, “Compositions And Methods For Prophylaxis Or Treatment Of Pain” (Interk Peptide Therapeutics Limited, priority 2017, published 2021) are described below.

What all share (format): biochemical
The target in one experiment is T1, PKG1α (h) (Homo sapiens, UniProt Q13976).
T1 construct: purchased Eurofins Pharma Discovery Services UK Ltd (contract assay service)
T1 sequence (Q13976 1-671): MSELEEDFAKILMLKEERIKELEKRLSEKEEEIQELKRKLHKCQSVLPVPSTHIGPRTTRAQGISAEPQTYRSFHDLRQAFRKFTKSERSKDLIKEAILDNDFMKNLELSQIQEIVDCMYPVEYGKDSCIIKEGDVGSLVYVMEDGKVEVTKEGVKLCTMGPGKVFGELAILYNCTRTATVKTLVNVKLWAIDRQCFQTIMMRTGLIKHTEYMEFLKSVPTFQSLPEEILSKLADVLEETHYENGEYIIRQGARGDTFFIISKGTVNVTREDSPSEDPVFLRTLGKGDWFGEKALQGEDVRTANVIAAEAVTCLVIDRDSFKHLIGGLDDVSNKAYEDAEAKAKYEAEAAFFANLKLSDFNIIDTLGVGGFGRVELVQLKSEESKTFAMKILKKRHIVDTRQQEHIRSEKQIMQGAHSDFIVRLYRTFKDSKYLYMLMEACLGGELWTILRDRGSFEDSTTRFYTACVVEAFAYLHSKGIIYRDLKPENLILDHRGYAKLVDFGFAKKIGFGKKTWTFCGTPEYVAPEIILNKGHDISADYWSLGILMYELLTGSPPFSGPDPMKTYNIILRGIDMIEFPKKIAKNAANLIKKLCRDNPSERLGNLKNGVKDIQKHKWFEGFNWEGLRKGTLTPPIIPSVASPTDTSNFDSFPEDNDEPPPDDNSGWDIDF
The experiment is described as follows: PKG1α kinase activity assay, cell free. The procedure: (§1) The capacity of test peptides to inhibit the activity of the kinases PKG1α, PKG1β, and Src family kinases in a cell free assay was assessed. The test peptides were amidated at their C-terminal end (indicated by “—NH2”) unless otherwise noted. Kinase activity assays were conducted by Eurofins Pharma Discovery Services UK Ltd (Dundee Technology Park, Dundee, United Kingdom) and Reaction Biology Corp. (Malvern, Pa., USA).
(§2) All test peptides are prepared to 50× final assay concentration in 100% DMSO. This working stock of the test compound is added to assay wells as the first component in the reaction, followed by the remaining components of the respective assay protocols described below. There is no pre-incubation step between the test peptide and the kinase prior to initiation of the reaction. The kinases are diluted in buffer (20 mM MOPS, 1 mM EDTA, 0.01% Brij-35, 5% Glycerol, 0.1% β-mercaptoethanol, 1 mg/mL BSA) prior to addition to the reaction mix.
(§3) Positive control wells contain all components of the reaction, except the test peptide of interest. However, DMSO (at a final concentration of 2%) is included in positive control wells to control for solvent effects. Negative control wells contain all components of the reaction, with a reference inhibitor (staurosporine) replacing the test peptide. This abolishes kinase activity and establishes a base-line (0% kinase activity). Kinase assay protocols (Eurofins Pharma Discovery Services UK Ltd, Dundee Technology Park, Dundee, United Kingdom) are described below. Of the Src family kinases, only the assay protocol for c-Src is shown.
PKG1α (h) is incubated with 8 mM MOPS pH 7.0, 0.2 mM EDTA, 10 μM cGMP, 200 μM peptide RRRLSFAEPG, 10 mM magnesium acetate and [γ-^33P]-ATP (specific activity approx. 500 cpm/pmol, concentration as required). The reaction is initiated by the addition of the MgATP mix. After incubation for 40 minutes at room temperature, the reaction is stopped by the addition of 3% phosphoric acid solution. A 10 μL aliquot of the reaction is then spotted onto a P30 filtermat and washed three times for 5 mins in 75 mM phosphoric acid and once in methanol prior to drying and scintillation counting.

Another experiment concerns the target T2, PKG1β (h) (Homo sapiens, UniProt Q13976).
T2 construct: purchased Eurofins Pharma Discovery Services UK Ltd (contract assay service)
T2 sequence (Q13976 1-686 isoform Q13976-2): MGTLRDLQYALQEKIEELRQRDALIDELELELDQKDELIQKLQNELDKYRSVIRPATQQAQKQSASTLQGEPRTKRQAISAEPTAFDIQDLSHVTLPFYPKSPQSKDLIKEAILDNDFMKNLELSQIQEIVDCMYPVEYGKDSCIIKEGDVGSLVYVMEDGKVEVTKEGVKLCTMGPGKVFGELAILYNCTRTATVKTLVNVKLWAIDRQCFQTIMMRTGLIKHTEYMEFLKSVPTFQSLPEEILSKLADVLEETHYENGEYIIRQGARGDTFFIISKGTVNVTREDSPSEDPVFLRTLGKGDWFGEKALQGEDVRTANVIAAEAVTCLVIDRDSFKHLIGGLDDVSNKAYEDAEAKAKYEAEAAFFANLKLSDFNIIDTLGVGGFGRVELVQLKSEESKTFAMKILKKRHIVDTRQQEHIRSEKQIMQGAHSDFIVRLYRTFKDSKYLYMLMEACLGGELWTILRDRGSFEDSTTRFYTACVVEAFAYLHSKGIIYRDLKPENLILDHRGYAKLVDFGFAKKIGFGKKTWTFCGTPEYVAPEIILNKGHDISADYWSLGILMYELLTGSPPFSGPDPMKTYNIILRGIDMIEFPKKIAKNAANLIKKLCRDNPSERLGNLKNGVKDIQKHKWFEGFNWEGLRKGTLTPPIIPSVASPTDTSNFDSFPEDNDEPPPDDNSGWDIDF
Put plainly: PKG1β kinase activity assay, cell free. The procedure:
as §1, §2, §3
PKG1b(h) is incubated with 8 mM MOPS pH 7.0, 0.2 mM EDTA, 10 μM cGMP, 200 μM RRRLSFAEPG, 10 mM magnesium acetate and [γ-^33P]-ATP (specific activity approx. 500 cpm/pmol, concentration as required). The reaction is initiated by the addition of the MgATP mix. After incubation for 40 minutes at room temperature, the reaction is stopped by the addition of 3% phosphoric acid solution. A 10 μL aliquot of the reaction is then spotted onto a P30 filtermat and washed three times for 5 mins in 75 mM phosphoric acid and once in methanol prior to drying and scintillation counting.

In a further experiment the target is T3, c-Src (h) (Homo sapiens, UniProt P12931).
T3 construct: purchased Eurofins Pharma Discovery Services UK Ltd (contract assay service)
T3 sequence (P12931 whole entry): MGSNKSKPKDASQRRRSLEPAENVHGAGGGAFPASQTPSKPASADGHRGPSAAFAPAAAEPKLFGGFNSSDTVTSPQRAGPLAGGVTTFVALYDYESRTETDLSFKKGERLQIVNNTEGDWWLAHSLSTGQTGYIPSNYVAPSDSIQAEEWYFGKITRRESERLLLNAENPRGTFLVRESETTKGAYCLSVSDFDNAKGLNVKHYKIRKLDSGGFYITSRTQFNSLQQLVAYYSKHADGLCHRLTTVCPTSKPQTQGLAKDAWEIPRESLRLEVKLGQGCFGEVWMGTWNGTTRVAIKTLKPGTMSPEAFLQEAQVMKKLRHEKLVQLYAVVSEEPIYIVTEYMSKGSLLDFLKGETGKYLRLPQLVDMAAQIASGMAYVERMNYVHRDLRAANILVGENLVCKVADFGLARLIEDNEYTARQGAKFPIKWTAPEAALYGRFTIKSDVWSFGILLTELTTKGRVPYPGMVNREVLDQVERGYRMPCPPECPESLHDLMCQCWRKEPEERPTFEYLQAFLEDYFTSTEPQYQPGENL
Put plainly: c-Src kinase activity assay, cell free. The procedure:
as §1, §2, §3
c-Src (h) is incubated with 8 mM MOPS pH 7.0, 0.2 mM EDTA, 250 μM KVEKIGEGTYGVVYK (Cdc2 peptide), 10 mM MgAcetate and [γ-^33P]-ATP (specific activity approx. 500 cpm/pmol, concentration as required). The reaction is initiated by the addition of the MgATP mix. After incubation for 40 minutes at room temperature, the reaction is stopped by the addition of 3% phosphoric acid solution. A 10 μL aliquot of the reaction is then spotted onto a P30 filtermat and washed three times for 5 minutes in 75 mM phosphoric acid and once in methanol prior to drying and scintillation counting.

The mark [1] stands for this setting: cell free, 10 μM cGMP, 40 minutes at room temperature, read-out: PKG1α IC50.
Setting [2] is: cell free, 10 μM cGMP, 40 minutes at room temperature, read-out: PKG1β IC50.
Where [3] appears, read: cell free, 40 minutes at room temperature, read-out: c-Src IC50.

The IC50 is the concentration that gives 50% inhibition.

Like-named read-outs stand apart in the source and are kept apart here. Non-standard residues stand in square brackets, D forms with d. Residues, ends and D or L forms follow the SMILES beside them. No end group written: not given here. Orn = NCCC[C@H](N)C(=O)O

Take `N=C(N)NCCC[C@H](NC(=O)[C@H](CCCNC(=N)N)NC(=O)[C@H](CCCNC(=N)N)NC(=O)[C@H](CCCNC(=N)N)NC(=O)[C@H](CCCNC(=N)N)NC(=O)[C@H](CCCNC(=N)N)NC(=O)[C@H](CCCNC(=N)N)NC(=O)[C@H](CCCNC(=N)N)NC(=O)[C@H](CCCNC(=N)N)NC(=O)[C@@H](N)CCCNC(=N)N)C(N)=O` [IK00100, RRRRRRRRRR-NH2]: the 50% inhibitory concentration (IC50) on PKG1α (h) (setting [1]) came to 16 nM; at PKG1β (h) (setting [2]) it was 9 nM; on c-Src (h) (setting [3]), 7 nM.

For `N=C(N)NCCC[C@H](NC(=O)[C@H](CCCNC(=N)N)NC(=O)[C@H](CCCNC(=N)N)NC(=O)[C@H](CCCNC(=N)N)NC(=O)[C@H](CCCNC(=N)N)NC(=O)[C@H](CCCNC(=N)N)NC(=O)[C@H](CCCNC(=N)N)NC(=O)[C@H](CCCNC(=N)N)NC(=O)[C@H](CCCNC(=N)N)NC(=O)[C@H](CCCNC(=N)N)NC(=O)[C@H](CCCNC(=N)N)NC(=O)[C@H](CCCNC(=N)N)NC(=O)[C@H](CCCNC(=N)N)NC(=O)[C@@H](N)CCCNC(=N)N)C(=O)O` [IK0140H, RRRRRRRRRRRRRR], the values for the IC50 on PKG1α (h), against PKG1β (h) and on c-Src (h) were 7 nM, 7 nM and above 1000 nM, respectively.

`N=C(N)NCCC[C@H](NC(=O)[C@H](CCCNC(=N)N)NC(=O)[C@H](CCCNC(=N)N)NC(=O)[C@H](CCCNC(=N)N)NC(=O)[C@H](CCCNC(=N)N)NC(=O)[C@@H](N)CCCNC(=N)N)C(N)=O` [IK00600, RRRRRR-NH2]: the IC50 was above 1000 nM on PKG1α (h) (setting [1]), 457 nM at PKG1β (h) (setting [2]) and 100 nM on c-Src (h) (setting [3]).

As to `N=C(N)NCCC[C@H](NC(=O)[C@H](CCCNC(=N)N)NC(=O)[C@H](CCCNC(=N)N)NC(=O)[C@H](CCCNC(=N)N)NC(=O)[C@H](CCCNC(=N)N)NC(=O)[C@H](CCCNC(=N)N)NC(=O)[C@H](CCCNC(=N)N)NC(=O)[C@@H](N)CCCNC(=N)N)C(N)=O` [IK00800, RRRRRRRR-NH2], the results for the IC50 on PKG1α (h) (setting [1]), on PKG1β (h) (setting [2]) and at c-Src (h) (setting [3]) were 75 nM, 55 nM and 26 nM, respectively.

Take `N=C(N)NCCC[C@H](NC(=O)[C@H](CCCNC(=N)N)NC(=O)[C@H](CCCNC(=N)N)NC(=O)[C@H](CCCNC(=N)N)NC(=O)[C@H](CCCNC(=N)N)NC(=O)[C@H](CCCNC(=N)N)NC(=O)[C@H](CCCNC(=N)N)NC(=O)[C@H](CCCNC(=N)N)NC(=O)[C@@H](N)CCCNC(=N)N)C(N)=O` [IK00900, RRRRRRRRR-NH2]: the IC50 was 33.5 nM on PKG1α (h) (setting [1]), 22 nM at PKG1β (h) (setting [2]) and 4 nM at c-Src (h) (setting [3]).

Consider `N=C(N)NCCC[C@H](NC(=O)[C@H](CCCNC(=N)N)NC(=O)[C@H](CCCNC(=N)N)NC(=O)[C@H](CCCNC(=N)N)NC(=O)[C@H](CCCNC(=N)N)NC(=O)[C@H](CCCNC(=N)N)NC(=O)[C@H](CCCNC(=N)N)NC(=O)[C@H](CCCNC(=N)N)NC(=O)[C@H](CCCNC(=N)N)NC(=O)[C@H](CCCNC(=N)N)NC(=O)[C@H](CCCNC(=N)N)NC(=O)[C@@H](N)CCCNC(=N)N)C(N)=O` [IK01200, RRRRRRRRRRRR-NH2], for which the IC50 against PKG1α (h) amounted to 8 nM; against PKG1β (h) it was 7 nM; against c-Src (h) it was 6 nM.

In the case of `NCCC[C@H](NC(=O)[C@H](CCCN)NC(=O)[C@H](CCCN)NC(=O)[C@H](CCCN)NC(=O)[C@H](CCCN)NC(=O)[C@H](CCCN)NC(=O)[C@H](CCCN)NC(=O)[C@H](CCCN)NC(=O)[C@H](CCCN)NC(=O)[C@@H](N)CCCN)C(N)=O` [IKNOR10, OrnOrnOrnOrnOrnOrnOrnOrnOrnOrn-NH2, reference compound] (H-[Orn][Orn][Orn][Orn][Orn][Orn][Orn][Orn][Orn][Orn]-NH2; N-terminus assumed), the IC50 was above 1000 nM on PKG1α (h), above 1000 nM at PKG1β (h) and 7 nM against c-Src (h).

For the molecule “HHHHHHHHHH-NH2 [IK00010, HHHHHHHHHH-NH2, reference compound]”, the half-inhibitory concentration (IC50) on PKG1α (h) (setting [1]), on PKG1β (h) (setting [2]) and at c-Src (h) (setting [3]) was above 1000 nM each time.

Consider “KKKKKKKKKK-NH2 [IK00K00, KKKKKKKKKK-NH2, reference compound]”, for which the IC50 is above 1000 nM at PKG1α (h) (setting [1]), above 1000 nM on PKG1β (h) (setting [2]) and 96 nM on c-Src (h) (setting [3]).

As for “RRRRRRRRRRRRRRRR-NH2 [IK01600, RRRRRRRRRRRRRRRR-NH2]”, the results for the IC50 on PKG1α (h) (setting [1]), at PKG1β (h) (setting [2]) and at c-Src (h) (setting [3]) were 6 nM, 4 nM and 4 nM, respectively.

Take RRRRRRRRRRRRRRRRRRRR-NH2 [IK00200]: the IC50 on PKG1α (h) (setting [1]) and at PKG1β (h) (setting [2]) was 6 nM each time.
